“And” between values parts separate entries of the source, which are not always exact repeats. Equal values may be shown once.
Key:
[1] = tested on: pBR322 plasmid DNA; experiment: Agarose gel electrophoresis, DNA cleavage; assay type: biochemical
Experimental: Electrophoresis assays were performed in 1.5% agarose gel and 1× TBE buffer using the DNA plasmid pBR322. The plasmid (15 µM base pairs) was incubated with 10 and 50 μM concentrations of the coordination compounds for 1 h at 37 °C in presence and absence of ascorbic acid (50 μM) as reducing agent and hydrogen peroxide (500 µM) as ROS generator in a final volume of 20 μL. The DNA-cleaving compound [Cu(phen)2(H2O)](NO3)2 was used as reference. The samples were loaded into the gel with 4 μL of a loading buffer (30% glycerol, 5 mM xylene cyanol), and electrophoresis was performed in 1× TBE at 100 V for 1 h in a Bio-Rad horizontal tank. Subsequently, the gel was stained with SYBR™ Safe overnight and images were acquired with a Gel Doc EZ Imager instrument (Bio-Rad).
Distinct forms of pBR322 plasmid DNA are commonly observed by gel electrophoresis due to the conformational changes that present distinct electrophoretic mobility: (1) supercoiled DNA (Form I) that migrates faster on the gel, (2) circular nicked (Form II), obtained from a one-strand scission, has a slower migration through the gel and (3) linear form (Form III) is generated when both strands are cleaved and migrates between forms I and II [54]. The interaction of the free ligands and their copper(II) and zinc(II) coordination compounds with pBR322 was investigated in presence of H2Asc (50 μM) as reducing agent and H2O2 (500 μM) as ROS generator. Solutions of 10 and 50 µM of the coordination compounds were incubated with the DNA at 37 °C for 1 h.

[2] = tested on: ct-DNA; experiment: Competitive displacement of Hoechst 33258 from DNA (fluorescence); assay type: binding, calf; conditions: Hoechst 33258 1.9 µM, [DNA]b = 30 µM, compound 0-50 µM, 1 h
Experimental: (§1) For the UV–Vis, fluorescence and circular dichroism assays the concentration of ct-DNA was determined on a Varian Cary 100 Scan spectrophotometer from the absorption at 260 nm and the corresponding molar absorptivity of 6600 M^−1 cm^−1 (nucleobase concentration). The stock solutions of the coordination compounds and the free ligands were prepared in cacodylate/NaCl buffer (1 mM cacodylic acid and 20 mM sodium chloride) at pH 7.25. The final samples contained a DMSO concentration of 0.2%.
(§2) Emission intensity of the dyes DNA-intercalator ethidium bromide, EB (λexc = 514 nm) and the minor-groove binder Hoechst 33,258 (λexc = 350 nm) was measured on iHR320 HORIBA JOBIN YVON spectrofluorometer. The samples contained 15 µM (in base pairs) of ct-DNA and 75 µM of EB […] in cacodylate/NaCl buffer. The respective dye was incubated for 30 min with ct-DNA to allow its binding to the biomolecule. Subsequently, increasing amounts of coordination compounds (0–50 µM) were added up to a final volume of 2 mL, and the samples were incubated for 1 h at 37 °C. The fluorescence spectra of all samples were recorded at room temperature. The affinity of the compounds for ct-DNA compared to EB was evaluated through the Stern–Volmer quenching constant Ksv, from Eq. 3:3 I0/I=1+Ksvcompound where I0 and I are the emission intensities in absence and the presence of the compound, respectively.
Competitive binding assays were carried out with Hoechst 33,258. This dye binds to B-DNA, especially those with an AT-rich sequence giving a fluorescent signal at 458 nm when excited at 350 nm. As for to the EB assays, DNA (30 µM) was incubated for 30 min with Hoechst 33,258 (1.9 µM) and increasing amounts of the coordination compounds were subsequently added. In all cases, fluorescence quenching was observed (Fig. 9). As previously, the Ksv constants were determined (Fig. 9c and Table 4). The copper(II) compounds show Ksv values in the […] range (Table 4), indicating a groove binding behavior. For the zinc(II) compounds, the Ksv values are two orders of magnitude lower indicating weaker interactions, must likely of electrostatic nature.

[3] = Distribution coefficient LogD7.4, shake-flask 1-octanol/MOPS buffer; assay type: physicochemical; conditions: 25 °C; for LogD7.4: octanol/water (MOPS buffer 10^–2 M), 3 h
Experimental: Solutions between 100 and 10 µM of the free ligands (cenz and onz) and the coordination compounds 3–10 were prepared in a MOPS buffer pH 7.4 as the aqueous phase and in 1-octanol as the organic phase. The absorption at 320 nm and 310 nm was determined for the aqueous and organic phase respectively by electronic spectroscopy (UV–Vis). Through a linear regression (concentration vs. absorption) the molar extinction coefficient of each compound in both phases was determined (Table 3). The lipophilicity was calculated in the 1-octanol/water system from the shake flask method using Eq. 1 [39]:1 […] where, Co is the final concentration in the organic phase and Cw is the final concentration in the aqueous phase (MOPS buffer at 10^–2 M pH 7.4). Both phases were presaturated with 50 µM solutions of the free ligands or 500 µM of each coordination compound and their UV spectrum was recorded. Both phases were combined and kept stirring for 3 h at 25 °C and in the absence of light. Subsequently, the mixture was centrifuged at 400g and the concentration in both phases was determined by UV–Vis spectroscopy using the Beer-Lambert law. The assays were performed in triplicate.
The T gondii parasite is an apicomplex organism; it requires a host cell to live, so it is important that the drugs used against the parasite have easy access to the cell. The lipophilicity of a compound is an important physicochemical property to determine its ability to permeate the biological membrane through passive diffusion; which usually is measured from the distribution coefficient logD7.4 = log(Co/Cw), in n-octanol/water. The shake-flask method was used to determine the LogD7.4 values from the molar extinction coefficients of the coordination compounds and the ligands in the two solvents (Table 3).

[4] = tested on: ct-DNA; experiment: Circular dichroism of ct-DNA; assay type: binding, calf; conditions: [DNA]b = 50 µM, [complex]/[DNA] 0-2, 1 h 37 °C
Experimental: as §1
Circular dichroism (CD) spectra were recorded using a JASCO-815 spectropolarimeter, equipped with xenon-arc lamp of 450 W. The sample compartment was air-purged with N2 before use. For the measurements, a quartz cuvette with an optical path of 5 mm was used. A solution of 25 µM (in base pairs) of ct-DNA in cacodylate/NaCl buffer was incubated for 1 h at 37 °C with increasing amounts of coordination compounds (0–50 µM). The CD spectra were recorded at room temperature.
The interaction of small molecules with DNA can modify these CD signals depending on the type of binding. Intercalative interactions increase the intensity of the signals, as the result of an increase of the stability of the B conformation, whereas groove binding or covalent interactions tend to decrease the intensity of these signals, which are moreover displaced. The CD spectra for both ligands and their copper(II) and zinc(II) complexes were obtained at constant concentration of ct-DNA, increasing the complex concentration up to two equivalents ([complex]/[DNA] ratios of 0, 0.2, 0.4, 1, 2) with respect to the nucleobases concentration ([DNA]b = 50 µM).

[5] = tested on: ct-DNA; experiment: Competitive displacement of ethidium bromide from DNA (fluorescence); assay type: binding, calf; conditions: EB 75 µM, [DNA]b = 30 µM, compound 0-50 µM, 1 h
Experimental: as §1, §2
With the aim to corroborate the binding mode of the coordination compounds with DNA competitive displacement assays were carried out by florescence spectroscopy. The fluorescence of ethidium bromide (EB) increases when it intercalates between DNA base pairs, forming an EB-DNA adduct. Competitive binding assays will lead to a decrease of the fluorescence intensity (λexc = 514 nm; λem = 610 nm) if the interacting molecule is capable of displacing EB from the DNA helix. Solutions containing constant concentrations of DNA (30 µM) and EB (75 µM) were incubated for 30 min. Then the coordination compounds to be tested were added in a concentration in the range of 0–50 µM (corresponding to [complex]/[DNA] ratios between = 0 and 3.3), and fluorescence spectra were recorded after 1 h of incubation.

[6] = tested on: RH tachyzoites of Toxoplasma gondii; experiment: Viability of extracellular tachyzoites, Sytox Green exclusion test; assay type: cell-based; conditions: 2.5-40 µM, 1 h, PBS
Experimental: RH tachyzoites of Toxoplasma gondii were extracted in PBS solution at pH 7.4 from intraperitoneal fluid of infected CD1 mice on the third day of infection and centrifuged for ten minutes at 260g. Purified parasites were used within 4 h after their isolation.
The viability of the parasites was determined from staining with Sytox Green® fluorescent dye exclusion test. Purified tachyzoites (1 × 10^6) were incubated for one hour at room temperature with PBS solutions of the coordination compounds or the free ligands at concentrations of 40, 20, 10, 5, and 2.5 µM (0.1% DMSO), in a volume final of 1 mL. After the incubation time, the samples were centrifuged for 10 min at 250g, the medium was removed and 20 µL of Sytox Green® was added after 15 min of incubation for differentiate dead parasites in a Neubauer chamber. The assays were performed in triplicate. The half maximal inhibitory concentration (IC50) was calculated by Boltzmann regression analysis and expressed as mean ± standard error of three replicates. Based on the results the tachyzoites were incubated under the same conditions with the coordination compounds [Cu(onz)2Cl2] and [Cu(onz)2Br2] at their respective IC50 values, Sytox Green® was then added, and they were observed by fluorescence microscopy. Sulfadiazine was used as positive control.
Viability assays were performed against tachyzoites of Toxoplasma gondii. The RH strain was used to evaluate the effect of different concentrations (namely, 2.5, 5, 10, 20 and 40 µM) of the coordination compounds and the free 5-nitroimidazole against the tachyzoites. The evaluation were performed in PBS buffer (pH 7.4) with Sytox Green® exclusion test, which allows differentiating dead from live tachyzoites, since the intact cell membrane of alive ones is not stained.

[7] = compound 10 (mM in the source), + H2Asc
[8] = compound 10 (mM in the source), + H2Asc + H2O2
[9] = compound 10 (mM in the source), + H2O2
[10] = compound 10 (mM in the source), no additive
[11] = compound 50 (mM in the source), + H2Asc
[12] = compound 50 (mM in the source), + H2Asc + H2O2
[13] = compound 50 (mM in the source), + H2O2
[14] = compound 50 (mM in the source), no additive

SMILES | %Damage [1, 7] | %Nicked [1, 7] [%] | %Supercoiled [1, 7] [%] | %Damage [1, 8] [%] | %Damage [1, 9] | %Supercoiled [1, 9] | %Supercoiled [1, 10] | Hoechst 33258 Ksv [2] [M⁻¹] | LogD7.4 [3] | effect on CD spectrum of ct-DNA (bands at 275 and 245 nm) [4] | %Nicked [1, 9] [%] | %Damage [1, 10] [%] | %Damage [1, 11] [%] | %Supercoiled [1, 11] [%] | %Damage [1, 12] [%] | %Damage [1, 13] [%] | %Nicked [1, 13] [%] | %Supercoiled [1, 13] [%] | %Damage [1, 14] [%] | %Supercoiled [1, 14] [%] | also measured
O.O=[N+]([O-])[O-].O=[N+]([O-])[O-].[Cu+2].c1cnc2c(c1)ccc1cccnc12.c1cnc2c(c1)ccc1cccnc12 [Cu(phen), reference compound] | 100.00% and 94.90% | 64.80 | 5.10 | 100.00 | 80.70% and 79.00% | 19.30% and 21.00% | 81.70% and 93.20% |  |  |  |  |  |  |  |  |  |  |  |  |  | 
Cc1ncc([N+](=O)[O-])n1CCCl.Cc1ncc([N+](=O)[O-])n1CCCl.[Cl][Zn][Cl] [[Zn(cenz)2Cl2]] | 17.10% | 2.90 | 82.90 | 90.90 | 7.30% | 92.70% | 79.20% | 61000 | 0.86 | spectra changes are minor | 6.50 | 20.80 | 80.60 | 19.40 | 100.00 | 97.60 | 81.50 | 2.40 | 18.40 | 81.60 | %Nicked [1, 8]: 2.10%; %Supercoiled [1, 8]: 9.10%; %Nicked [1, 10]: 2.50%; %Nicked [1, 11]: 40.60%; %Nicked [1, 14]: 2.20%
Cc1n(CC(O)CCl)c([N+](=O)[O-])c[n+]1[Zn-2]([Br])([Br])[n+]1cc([N+](=O)[O-])n(CC(O)CCl)c1C (stereo not shown) [[Zn(onz)2Br2]] | 87.3% | 81.80 | 12.70 | 100.00 | 14.30% | 85.70% | 96.50% | 48000 | 0.95 | spectra changes are minor | 4.70 | 3.5 | 98.2 | 1.80 | 100.00 | 44.80 | 29.10 | 55.20 | 11.9 | 88.10 | %Nicked [1, 10]: 2.60%; %Nicked [1, 11]: 98.80%; %Nicked [1, 14]: 0.40%; Ethidium bromide Ksv [5]: 2600 M⁻¹
Cc1ncc([N+](=O)[O-])n1CCCl [cenz, 1-(2-chloroethyl)-2-methyl-5-nitro-1H-imidazole] |  |  |  |  |  |  |  |  |  | did not affect the DNA structure |  |  | 8.80 | 91.20 | 9.70 | 7.20 | 5.90 | 92.80 | 7.50 | 92.50 | logD at 3 h ([3]; 1-octanol/MOPS buffer, pH 7.4, octanol/water (MOPS buffer 10^–2 M)): 0.72; %Nicked [1, 12]: 4.00%; %Supercoiled [1, 12]: 90.30%; DNA cleavage (in words) ([1]; with and without H2Asc / H2O2): did not provoke any significant DNA cleavage; activity against T. gondii [6]: did not show activity

Reference: publication PMC11001709, “Anti-toxoplasma activity and DNA-binding of copper(II) and zinc(II) coordination compounds with 5-nitroimidazole-based ligands” (Journal of Biological Inorganic Chemistry, 2023)
